ChEMBL document CHEMBL3526083, “Prediction of relative in vivo metabolite exposure from in vitro data using two model drugs: dextromethorphan and omeprazole” (Drug Metab Dispos, 2012)

Assays:
Liver microsome [1] = experiment: Drug metabolism in human liver metabolism assessed as 5OH-omeprazole formation measured per mg of microsomal protein; type: ADME; settings: microsomes
Liver microsome [2] = experiment: Drug metabolism in human liver metabolism assessed as 5OH-omeprazole formation; type: ADME, tissue-based
Liver microsome [3] = experiment: Drug metabolism in human liver metabolism assessed as 5OH-omeprazole formation measured as microsomal fraction unbound; type: ADME; settings: microsomes
Liver microsome [4] = experiment: Drug metabolism in human liver metabolism assessed as 5OH-omeprazole formation measured as intrinsic clearance per mg of microsomal protein; type: ADME; settings: microsomes
Liver microsome [5] = experiment: Drug metabolism in human liver metabolism assessed as 5OH-omeprazole formation measured as intrinsic unbound clearance per mg of microsomal protein; type: ADME; settings: microsomes
Hepatocyte [6] = experiment: Drug metabolism in human hepatocytes assessed as 5OH-omeprazole formation measured per 10^6 cells as intrinsic unbound clearance; type: ADME, cell-based
Liver microsome [7] = experiment: Drug metabolism in human liver metabolism assessed as 5OH-omeprazole formation measured as plasma fraction unbound; type: ADME, cell-free
Liver microsome [8] = experiment: Drug metabolism in human liver metabolism assessed as omeprazole sulfone formation measured per mg of microsomal protein; type: ADME; settings: microsomes
Liver microsome [9] = experiment: Drug metabolism in human liver metabolism assessed as omeprazole sulfone formation; type: ADME, tissue-based
Liver microsome [10] = experiment: Drug metabolism in human liver metabolism assessed as omeprazole sulfone formation measured as microsomal fraction unbound per mg of microsomal protein; type: ADME; settings: microsomes
Liver microsome [11] = experiment: Drug metabolism in human liver metabolism assessed as omeprazole sulfone formation measured as intrinsic clearance per mg of microsomal protein; type: ADME; settings: microsomes
Liver microsome [12] = experiment: Drug metabolism in human liver metabolism assessed as omeprazole sulfone formation measured as intrinsic unbound clearance per mg of microsomal protein; type: ADME; settings: microsomes
Hepatocyte [13] = experiment: Drug metabolism in human hepatocytes assessed as omeprazole sulfone formation measured per 10^6 cells as intrinsic unbound clearance; type: ADME, cell-based
Liver microsome [14] = experiment: Drug metabolism in human liver metabolism assessed as omeprazole sulfone formation measured as plasma fraction unbound; type: ADME, cell-free
Hepatocyte [15] = experiment: Drug metabolism in human hepatocytes assessed as 5OH-omeprazole depletion measured per 10^6 cells as intrinsic unbound clearance; type: ADME, cell-based
Liver microsome [16] = experiment: Drug metabolism in human liver metabolism assessed as omeprazole sulfone depletion measured as microsomal fraction unbound; type: ADME; settings: microsomes
Liver microsome [17] = experiment: Drug metabolism in human liver metabolism assessed as omeprazole sulfone depletion measured as intrinsic clearance per mg of microsomal protein; type: ADME; settings: microsomes
Liver microsome [18] = experiment: Drug metabolism in human liver metabolism assessed as omeprazole sulfone depletion measured as intrinsic unbound clearance per mg of microsomal protein; type: ADME; settings: microsomes
Hepatocyte [19] = experiment: Drug metabolism in human hepatocytes assessed as omeprazole sulfone depletion measured per 10^6 cells as intrinsic unbound clearance; type: ADME, cell-based
Liver microsome [20] = experiment: Drug metabolism in human liver metabolism assessed as omeprazole sulfone depletion measured as plasma fraction unbound; type: ADME, cell-free
Homo sapiens = species: Homo sapiens; experiment: Ratio of AUC for compound to omeprazolein human; type: ADME, organism-based; settings: in vivo
Liver microsome [21] = experiment: Drug metabolism in human liver microsomes assessed as dextrorphan formation measured per mg of microsomal protein; type: ADME
Liver microsome [22] = experiment: Drug metabolism in human liver microsomes assessed as dextrorphan formation; type: ADME
Liver microsome [23] = experiment: Drug metabolism in human liver microsomes assessed as dextrorphan formation measured as microsomal fraction unbound; type: ADME
Liver microsome [24] = experiment: Drug metabolism in human liver microsomes assessed as dextrorphan formation measured as intrinsic clearance; type: ADME
Liver microsome [25] = experiment: Drug metabolism in human liver microsomes assessed as dextrorphan formation measured as intrinsic unbound clearance; type: ADME
Liver microsome [26] = experiment: Drug metabolism in human liver microsomes assessed as dextrorphan formation measured as plasma fraction unbound; type: ADME, cell-free

Work on `COc1ccc2[nH]c([S+]([O-])Cc3ncc(C)c(OC)c3C)nc2c1` (stereo not drawn) [OMEPRAZOLE] yielded a Vmax (Liver microsome [1]) of 0.11 nmol/min/mg, a Km (Liver microsome [2]) of 16 µM and a Fu (Liver microsome [3]) of 0.86. The CLint (Liver microsome [4]) was 7.1 µL/min/mg, the CL free (Liver microsome [5]) was 8.2 µL/min/mg and the CL free (Hepatocyte [6]) was 55 uL/hr/10^6cells. The Fu (Liver microsome [7]) was 0.061, the Vmax (Liver microsome [8]) was 0.074 nmol/min/mg and the Km (Liver microsome [9]) was 11 µM. The Fu (Liver microsome [10]) was 0.86, the CLint (Liver microsome [11]) was 6.6 µL/min/mg and the CL free (Liver microsome [12]) was 7.7 µL/min/mg. It also gave a CL free (Hepatocyte [13]) of 3.6 uL/hr/10^6cells, a Fu (Liver microsome [14]) of 0.061 and a CL free (Hepatocyte [15]) of 100 uL/hr/10^6cells. For the same molecule, the Fu (Liver microsome [16]) was 0.92, the CLint (Liver microsome [17]) was 32 µL/min/mg and the CL free (Liver microsome [18]) was 35 µL/min/mg. For the same molecule, the CL free (Hepatocyte [19]) was 48 uL/hr/10^6cells and the Fu (Liver microsome [20]) was 0.0048.
For `COc1ccc2[nH]c([S+]([O-])Cc3ncc(CO)c(OC)c3C)nc2c1` (stereo not drawn), the “Ratio AUC” value (Homo sapiens) was 0.48.
`COc1ccc2nc(S(=O)(=O)Cc3ncc(C)c(OC)c3C)[nH]c2c1` [OMEPRAZOLE SULFONE] was tested, and the “Ratio AUC” value (Homo sapiens) was 0.85.
`COc1ccc2c(c1)[C@]13CCCC[C@@H]1[C@H](C2)N(C)CC3` [DEXTROMETHORPHAN] gave a Vmax (Liver microsome [21]) of 0.066 nmol/min, a Km (Liver microsome [22]) of 5 µM and a Fu (Liver microsome [23]) of 0.93. It also gave a CLH (Liver microsome [24]) of 13 µL/min/mg, a CL free (Liver microsome [25]) of 14 µL/min/mg and a Fu (Liver microsome [26]) of 0.72.
